The values that follow come from the NIST ThermoML archive (doi:10.1016/j.jct.2005.08.009).

± gives the expanded uncertainty stated by the source.

For data set [1] the following is noted: 101 kPa, Liquid.
A short description of data set [2]: xn = mol fraction of the nth substance listed. The note with it: 101 kPa, Liquid, x2 = 0.

As for `CC#N` [acetonitrile], the mass density in data set [1] (298.15 K) amounted to 776.69 ± 1.9 kg/m3; in data set [1] (303.15 K) it was 771.89 ± 1.9 kg/m3; in data set [1] (308.15 K) it was 765.46 ± 2 kg/m3; in data set [1] (313.15 K) it was 760.86 ± 2 kg/m3; in data set [1] (318.15 K), 754.76 ± 2 kg/m3. For the same compound, the viscosity in data set [1] (298.15 K) worked out at 0.3417 ± 0.0053 mPa·s; in data set [1] (303.15 K), 0.328 ± 0.0051 mPa·s; in data set [1] (308.15 K), 0.3129 ± 0.0049 mPa·s; in data set [1] (313.15 K), 0.3009 ± 0.0048 mPa·s; in data set [1] (318.15 K) it was 0.2899 ± 0.0047 mPa·s.
`O` [water] + CC#N: the viscosity in data set [2] (298.15 K) was 0.8901 ± 0.011 mPa·s; in data set [2] (303.15 K), 0.7973 ± 0.01 mPa·s; in data set [2] (308.15 K) it was 0.7193 ± 0.0093 mPa·s; in data set [2] (313.15 K), 0.653 ± 0.0086 mPa·s; in data set [2] (318.15 K), 0.5961 ± 0.008 mPa·s.
